± gives the standard deviation of the averaged measurements.
What was measured:
Conditions in all cases: 72 h
BV-173 [1] = system: BV-173
Method in brief: (§1)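 The IC50 was read from log-logistic dose–response fits. Fifteen myeloid leukaemia lines were exposed for 72 h at 37 °C with 5% CO2 to five tenfold doses from 1 to 10,000 nM in duplicate. ATP luminescence, normalised to vehicle and to a 10 µM positive control, was fitted with four parameters.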

HEL [2] = system: HEL
Method in brief: as §1

HL-60 [3] = system: HL-60
Method in brief: as §1

K-562 [4] = system: K-562
Method in brief: as §1

KCL-22 [5] = system: KCL-22
Method in brief: as §1

KG-1 [6] = system: KG-1
Method in brief: as §1

KU-812 = system: KU-812
Method in brief: as §1

LAMA-84 [7] = system: LAMA-84
Method in brief: as §1

ML-2 [8] = system: ML-2
Method in brief: as §1

MOLM-13 = system: MOLM-13
Method in brief: as §1

MV4-11 [9] = system: MV4-11
Method in brief: as §1

Mono-Mac-6 [10] = system: Mono-Mac-6
Method in brief: as §1

NOMO-1 = system: NOMO-1
Method in brief: as §1

SHI-1 [11] = system: SHI-1
Method in brief: as §1

THP-1 = system: THP-1
Method in brief: as §1

HL-60 [12] = test: cell viability (% survival relative to DMSO control); higher = less cytotoxic
Method in brief: (§2)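 A rescreen of the full library used HL-60 cells in RPMI 1640 with 10% FBS on 384-well plates, run in duplicate at five tenfold concentrations (1–10,000 nM). Each screen included DMSO or 100 nM of one of three metabolic inhibitors and ran 72 h at 37 °C, 5% CO2. CellTiter-Glo viability was scaled between DMSO and 10 μM proteasome-inhibitor wells. Any area under the curve comes from four-parameter log-logistic fits with drc and PharmacoGx.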

BV-173 [13] = test: cell viability (% survival relative to DMSO control, bortezomib = 0%); higher = less cytotoxic
Method in brief: (§3)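 Seeding density for each of the 10 AML and 5 CML cell lines was titrated to the linear growth range. Cells went into 384-well plates pre-printed in duplicate with compounds at 1, 10, 100, 1000 or 10000 nM and were held for 72 h at 37 °C with 5% CO2. CellTiter-Glo luminescence then provided the readout. Percent survival is expressed relative to vehicle at 100% and a 10 µM positive control at 0%, averaged over duplicates.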

HEL [14] = test: as above
Method in brief: as §3

HL-60 [15] = test: as above
Method in brief: as §3

K-562 [16] = test: as above
Method in brief: as §3

KCL-22 [17] = test: as above
Method in brief: as §3

KG-1 [18] = test: as above
Method in brief: as §3

LAMA-84 [19] = test: as above
Method in brief: as §3

ML-2 [20] = test: as above
Method in brief: as §3

MV4-11 [21] = test: as above
Method in brief: as §3

Mono-Mac-6 [22] = test: as above
Method in brief: as §3

SHI-1 [23] = test: as above
Method in brief: as §3

HL-60 [24] = test: area under dose-response curve (viability, 1 nM-10 uM) (fraction (0-1)); higher = more sensitive
Method in brief: as §2

CNC(=C[N+](=O)[O-])NCCSCc1ccc(CN(C)C)o1 [Ranitidine]
Conditions | IC50 (cell viability) [µM]
BV-173 [1] | > 10
HEL [2] | > 10
HL-60 [3] | > 10
K-562 [4] | > 10
KCL-22 [5] | > 10
KG-1 [6] | > 10
KU-812 | > 10
LAMA-84 [7] | > 10
ML-2 [8] | > 10
MOLM-13 | > 10
MV4-11 [9] | > 10
Mono-Mac-6 [10] | > 10
NOMO-1 | > 10
SHI-1 [11] | > 10
THP-1 | > 10

cell viability [%], HL-60 [12]
Conditions | 0.001 µM | 0.01 µM | 0.1 µM | 1 µM | 10 µM
co-treatment: AZD3965 100 nM | 103 ± 2.5 | 102 ± 2.5 | 99.6 ± 4.2 | 107 ± 8.7 | 100 ± 3
co-treatment: DMSO vehicle | 104 ± 0.67 | 87.7 ± 16 | 105.91 ± 0.021 | 106.4 ± 0.2 | 96.1 ± 5.9
co-treatment: GSK2194069 100 nM | 94.3 ± 10 | 89.5 ± 1.4 | 108 ± 12 | 106 ± 12 | 102 ± 4.1
co-treatment: pictilisib 100 nM | 95.9 ± 16 | 70.3 ± 19 | 98.5 ± 5.1 | 110 ± 11 | 96.9 ± 4.7

Conditions | area under dose-response curve, co-treatment: AZD3965 100 nM | area under dose-response curve, co-treatment: DMSO vehicle | area under dose-response curve, co-treatment: GSK2194069 100 nM | area under dose-response curve, co-treatment: pictilisib 100 nM | cell viability, 1 nM [%] | cell viability, 10 nM [%] | cell viability, 100 nM [%] | cell viability, 1000 nM [%] | cell viability, 10000 nM [%]
BV-173 [13] | – | – | – | – | 96.7 | 96.1 | 105 | 96.9 | 108
HEL [14] | – | – | – | – | 113 | 104 | 107 | 104 | 92.4
HL-60 [15] | – | – | – | – | 98.1 | 156 | 97.5 | 95.5 | 121
HL-60 [24] | < 0.0301 | < 0.0301 | < 0.0301 | < 0.0301 | – | – | – | – | –
K-562 [16] | – | – | – | – | 108 | 92.1 | 93.5 | 97.3 | 103
KCL-22 [17] | – | – | – | – | 100 | 101 | 103 | 109 | 92.9
KG-1 [18] | – | – | – | – | 104 | 85.8 | 126 | 174 | 163
LAMA-84 [19] | – | – | – | – | 107 | 89.3 | 105 | 104 | 102
ML-2 [20] | – | – | – | – | 97.4 | 113 | 101 | 100 | 98.9
MV4-11 [21] | – | – | – | – | 98.5 | 109 | 108 | 114 | 104
Mono-Mac-6 [22] | – | – | – | – | 94.6 | 96.6 | 115 | 95.6 | 113
SHI-1 [23] | – | – | – | – | 98.6 | 107 | 96.4 | 122 | 104

C#CCN[C@@H]1CCc2ccccc21 [Rasagiline]
Conditions | IC50 (cell viability) [µM]
BV-173 [1] | > 10
HEL [2] | > 10
HL-60 [3] | > 10
K-562 [4] | > 10
KCL-22 [5] | > 10
KG-1 [6] | > 10
KU-812 | > 10
LAMA-84 [7] | > 10
ML-2 [8] | > 10
MOLM-13 | > 10
MV4-11 [9] | > 10
Mono-Mac-6 [10] | > 10
NOMO-1 | > 10
SHI-1 [11] | > 10
THP-1 | > 10

cell viability [%], HL-60 [12]
Conditions | 0.001 µM | 0.01 µM | 0.1 µM | 1 µM | 10 µM
co-treatment: AZD3965 100 nM | 102 ± 5.7 | 96.6 ± 9.6 | 100 ± 11 | 97.1 ± 1.7 | 99.9 ± 1.6
co-treatment: DMSO vehicle | 101 ± 1.1 | 102 ± 4.3 | 102 ± 1.8 | 100.1 ± 0.11 | 95.4 ± 3
co-treatment: GSK2194069 100 nM | 105 ± 1.6 | 107 ± 4.2 | 100 ± 6.3 | 102 ± 6.4 | 99.9 ± 4
co-treatment: pictilisib 100 nM | 89.6 ± 3.1 | 87.5 ± 12 | 103 ± 14 | 95.6 ± 7.2 | 102 ± 1.2

Conditions | area under dose-response curve, co-treatment: AZD3965 100 nM | area under dose-response curve, co-treatment: DMSO vehicle | area under dose-response curve, co-treatment: GSK2194069 100 nM | area under dose-response curve, co-treatment: pictilisib 100 nM | cell viability, 1 nM [%] | cell viability, 10 nM [%] | cell viability, 100 nM [%] | cell viability, 1000 nM [%] | cell viability, 10000 nM [%]
BV-173 [13] | – | – | – | – | 92.1 | 104 | 111 | 93.6 | 92.4
HEL [14] | – | – | – | – | 118 | 115 | 117 | 90.1 | 135
HL-60 [15] | – | – | – | – | 95.8 | 86.6 | 96.9 | 76.2 | 135
HL-60 [24] | < 0.0301 | < 0.0301 | < 0.0301 | < 0.0301 | – | – | – | – | –
K-562 [16] | – | – | – | – | 103 | 100 | 100 | 87.5 | 84.2
KCL-22 [17] | – | – | – | – | 80.3 | 108 | 98.4 | 89.7 | 135
KG-1 [18] | – | – | – | – | 88.3 | 116 | 98.5 | 89.8 | 114
LAMA-84 [19] | – | – | – | – | 98.2 | 106 | 106 | 91.8 | 97.2
ML-2 [20] | – | – | – | – | 89.9 | 104 | 105 | 87.2 | 104
MV4-11 [21] | – | – | – | – | 97.8 | 104 | 108 | 91.7 | 96
Mono-Mac-6 [22] | – | – | – | – | 92.4 | 105 | 101 | 80.9 | 100
SHI-1 [23] | – | – | – | – | 97.8 | 103 | 100 | 95.3 | 117

NC(CCC(=O)NC(CSCc1ccc(Br)cc1)C(=O)NCC(=O)OC1CCCC1)C(=O)OC1CCCC1 (stereo unspecified) [S-para-Bromobenzylglutathione cyclopentyl diester]
Conditions | IC50 (cell viability) [µM]
BV-173 [1] | 2.32
HEL [2] | > 10
HL-60 [3] | > 10
K-562 [4] | > 10
KCL-22 [5] | > 10
KG-1 [6] | > 10
KU-812 | > 10
LAMA-84 [7] | > 10
ML-2 [8] | 3.95
MOLM-13 | > 10
MV4-11 [9] | > 10
Mono-Mac-6 [10] | > 10
NOMO-1 | > 10
SHI-1 [11] | > 10
THP-1 | > 10

cell viability [%], HL-60 [12]
Conditions | 0.001 µM | 0.01 µM | 0.1 µM | 1 µM | 10 µM
co-treatment: AZD3965 100 nM | 101 ± 4 | 98.9 ± 1.1 | 102 ± 3.9 | 91.1 ± 10 | 77.1 ± 6.2
co-treatment: DMSO vehicle | 102 ± 2.7 | 91.6 ± 11 | 106 ± 1.5 | 97.4 ± 3 | 94.4 ± 3.5
co-treatment: GSK2194069 100 nM | 104.2 ± 1 | 85.8 ± 36 | 110 ± 5.5 | 95 ± 9.2 | 87.2 ± 5.7
co-treatment: pictilisib 100 nM | 97.1 ± 9.2 | 87.5 ± 17 | 113 ± 9.7 | 76.7 ± 18 | 55.5 ± 3.4

Conditions | area under dose-response curve, co-treatment: DMSO vehicle | area under dose-response curve, co-treatment: GSK2194069 100 nM | area under dose-response curve, co-treatment: pictilisib 100 nM | cell viability, 1 nM [%] | cell viability, 10 nM [%] | cell viability, 100 nM [%] | cell viability, 1000 nM [%] | cell viability, 10000 nM [%]
BV-173 [13] | – | – | – | 96.5 | 88.3 | 97 | 77.1 | 28
HEL [14] | – | – | – | 114 | 88.2 | 113 | 102 | 77
HL-60 [15] | – | – | – | 97.3 | 92.7 | 105 | 90 | 100
HL-60 [24] | < 0.0301 | < 0.0301 | 0.0772 | – | – | – | – | –
K-562 [16] | – | – | – | 105 | 106 | 104 | 112 | 93.2
KCL-22 [17] | – | – | – | 103 | 97.9 | 104 | 111 | 98.3
KG-1 [18] | – | – | – | 145 | 102 | 49.9 | 43.4 | 105
LAMA-84 [19] | – | – | – | 101 | 110 | 93.3 | 98.2 | 98.9
ML-2 [20] | – | – | – | 102 | 87.1 | 105 | 105 | 8.21
MV4-11 [21] | – | – | – | 109 | 89.3 | 106 | 98.7 | 93.4
Mono-Mac-6 [22] | – | – | – | 108 | 96.5 | 88.8 | 90.6 | 63.3
SHI-1 [23] | – | – | – | 98.2 | 109 | 98.5 | 91.3 | 99.9

Source: the supplement of paper PMC8671470
